Columns and labels:
Aβ42 = biological target: T1, Aβ42 (Homo sapiens, UniProt P05067); assay: Aβ disaggregation test by SDS-PAGE analysis (PICUP); format: biochemical; conditions: 25 μM Aβ aggregated 3 days, 50 μM or 500 μM compound, further 3 days
T1 construct: human A81-42 monomers (UniProtKB-P05067, a.a. 672-713)
Method: In order to confirm Aβ disaggregation in the sample prepared in Example 2.1, SDS-PAGE analysis was performed as follows.
In detail, the stock of ammonium persulfate (APS; 200 mM)and tris (2,2′-bipyridyl)dichlororuthenium (II) hexahydrate (Ru; 10 mM) was prepared in an amber tube (Axygen, MCT-150-X) by using a photo-induced cross-linking of unmodified proteins (PICUP) buffer (0.1 M sodium phosphate (pH 7.4)). The stock was diluted 10-fold in PICUP buffer (APS: 20 mM/Ru: 1 mM). 10 μL of each sample prepared in Example 2.1 was dispensed at the bottom of a 0.5 mL tube (Axygen, PCR-05-C). 1 μL of APS (20 mM) was dispensed on the tube wall and 1 μL of Ru (1 mM) on the tube cap. At this time, in order to prevent the reaction from proceeding, the sample was not mixed with APS and Ru. After closing the tube cap and spin down using a centrifuge, the tube was removed from the centrifuge and exposed to light 3 times per second using an incandescent lamp. 3 μL of 5× reducing sample buffer (w/5% β-mercaptoethanol) was added to each tube. Samples were heated at 95-100° C. for 5 minutes and then cooled on ice.
Then, the PICUP-treated samples were loaded on 4-20% (w/v) tris/glycine gel and electrophoresed at 100V for 1 hour and 30 minutes. After electrophoresis, the gel was separated and confirmed by silver staining.

Aβ1-42 [1] = biological target: T2, Aβ1-42 (Homo sapiens, UniProt P05067); assay: Aβ disaggregation test by Thioflavin T analysis; format: biochemical; conditions: for amyloid disaggregation effect: Aβ1-42 25 μM; for degree of Aβ aggregation compared to the control: Aβ1-42 25 μM pre-aggregated 72 hours, then 72 hours
T2 construct: human A81-42 monomers (UniProtKB-P05067, a.a. 672-713)
T2 sequence (P05067 672-713): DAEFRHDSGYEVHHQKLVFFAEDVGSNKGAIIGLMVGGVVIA
Method: (§1) The compound was then used diluted with 6% DMSO (in DW).
Triflupromazine hydrochloride was dissolved to the concentration of 5 mM in DMSO. The compound was then used diluted with 6% DMSO (in DW).
(§2) The Aβ solution was prepared by dissolving Aβ 1-42 monomers to the concentration of 10 mM in DMSO. Thereafter, the mixture was diluted to 100 μM by using DW and stored on ice.
(§3) On the other hand, Thioflavin-T was dissolved to the concentration of 5 mM in 50 mM glycine buffer (pH 8.5). Then, the resultant solution was diluted to the concentration of 50 μM by using 50 mM glycine buffer (pH 8.5) and stored in the dark while light was blocked.
The Aβ solution prepared in Example 2.1. was placed in 1.5 mL microcentrifuge tubes, each having 25 μM of the Aβ solution, and then reacted at 37° C. for 72 hours.
(§4) 25 μL of the reaction solution in which the reaction was completed was added to each well of a 96-well fluorescence assay plate, and 75 μL of the Thioflavin-T solution prepared above was added to each well. After reacting for 5 minutes in the dark at room temperature, fluorescence values were measured at excitation 450 nm and emission 485 nm by using a multi-mode microplate reader.
The fluorescence value of the group (control) treated with Aβ alone and aggregated for 72 hours was considered as 100%, and the measured fluorescence values were expressed as a relative value thereto, and results thereof are shown in FIG. 3 and FIG. 4.

APP/PS1 TG mice = assay: Y-maze test; format: in vivo; conditions: 8th week after oral administration; compared to TG-Veh and WT-Veh
Excerpt: (§5) Transgenic mice (APP/PS1 TG; Alzheimer' disease animal model; B6C3-Tg(APPswe, PSEN1dE)85Dbo/Mmjax) and wild type mice were derived from Jackson Laboratory (Bar Harbor, Maine, USA). APP/PS1 TG mice crossed with wild-type mice and maintained as double hemizygotes. All genotypes were confirmed by PCR analysis using tail DNA according to the standard PCR conditions of the Jackson Laboratory. Each mouse was housed in a plastic cage in the animal cage and the temperature of the plastic cage was maintained at 21±1° C. in alternating 12 hour light cycle, and the mice were freely fed with food and water.
The control group received the same amount of vehicle (0.5% MC in DW).
Y-maze test was performed using a maze structure made by placing the same three arms 40 cm in length (15 cm in height of the wall) at an angle of 120 degrees. […] The search time was 8 minutes per subject, and the final result was expressed as a spontaneous alteration (%) value. Spontaneous alteration (%) value was calculated by the following formula. […]
Behavioral patterns were analyzed using SMART VIDEO TRACKING Software (Panlab, USA). All data obtained in the experiments were expressed as mean±standard error mean (SEM), and the drug-applied group was compared with the non-drug group, which was a control, by using student's t-test.

Aβ1-42 [2] = biological target: T2, Aβ1-42; assay: Aβ disaggregation test of rifamycin-based derivatives by Thioflavin T analysis; format: biochemical; conditions: 50 μM compound, 50 μM Aβ1-42 aggregated 3 days, then 2 days of reaction
Method: as §1, §2, §3
The Aβ solution prepared in Example 3.1. was placed in 1.5 mL microcentrifuge tubes, each having 50 μM of the Aβ solution, and then reacted at 37° C. for 72 hours.
Each 1.5 mL microcentrifuge tube was treated with 50 μM rifapentine-based derivatives, followed by reaction at 37° C. for 48 hours.
as §4
The fluorescence value of the group (control) treated with Aβ alone and aggregated for 72 hours by treating only Aβ was considered as 100%, and the measured fluorescence values were expressed as a relative value thereto, and results thereof are shown in FIG. 7.

Aβ1-42 [3] = biological target: T2, Aβ1-42; assay: Aβ aggregation inhibition test (Thioflavin T analysis); format: biochemical; conditions: for Aβ aggregation degree compared to the control / amyloid aggregation inhibition effect compared to the control: 2 μM compound, Aβ1-42 50 μM; for Aβ aggregation degree compared to the control: 37° C. 72 hours, control = 100%; for amyloid aggregation inhibition effect compared to the control: 72 hours; for Aggregation (%): 20 μM compound, 50 μM Aβ, 3 days, relative to control (100%)
Method: Then, the compound was used diluted by using 6% DMSO (in DW) and used.
Triflupromazine hydrochloride (triflupromazine used in all the examples below is triflupromazine hydrochloride) was dissolved to a concentration of 5 mM in DMSO. The compound was then used diluted with 6% DMSO (in DW).
The Aβ solution was prepared by dissolving human A81-42 monomers (UniProtKB-P05067, a.a. 672-713) to 10 mM concentration in DMSO. Thereafter, the mixture was diluted to 100 uM by using DW and stored on ice.
On the other hand, Thioflavin-T (Sigma-Aldrich) was dissolved to the concentration of 5 mM in 50 mM glycine buffer (pH 8.5). Then, the resultant solution was diluted to the concentration of 50 μM by using 50 mM glycine buffer (pH 8.5) and stored in the dark while light was blocked.
as §4
The fluorescence value of the group (control) treated with Aβ alone and aggregated for 72 hours was considered as 100%, and the measured fluorescence values were expressed as a relative value thereto, and results thereof are shown in FIG. 1 and FIG. 2.
In addition, by performing the same test as described above for 20 μM of various compounds using 50 μM Aβ, the degree of Aβ aggregation was measured, and the result is expressed as a relative value for control (100%).

[4] = tested on: Total Tau (T-Tau) and phosphorylated Tau (P-Tau); assay: Western blot of total and phosphorylated Tau in brain tissue after oral triflupromazine; format: in vivo, mice
Excerpt: as §5, with “(5×FAD; Alzheimer's” for “(APP/PS1 TG; Alzheimer'”, “B6SJL-Tg (APPSwFILon, PSEN1*M146L*L286V)6799Vas/Mmjax))” for “B6C3-Tg(APPswe, PSEN1dE)85Dbo/Mmjax)”, “wild-type” for “wild type”, “obtained” for “derived”, “5× FAD” for “APP/PS1 TG”, “Four to six mice were” for “Each mouse was”
(§6) Seven-month old 5× FAD mice were orally treated with 50 mg/kg of triflupromazine once every two days for 3 weeks. The control received the same amount of vehicle (1% (w/v) DMSO in PBS).
Mice were anesthetized using 2%(w/v) avertin (20 mg/g, i.p.). The mice were perfused with 0.9%(w/v) NaCl and brains thereof were excised. The hemibrains were fixed overnight at 4° C. in 4° /0(w/v) paraformaldehyde (pH 7.4). For cryopreservation, brains were soaked in 30%(w/v) sucrose for 48 hours. The other hemibrains were dissected into cortical and hippocampal regions and homogenized on ice for 30 minutes in lysis buffer (10 mM Tris-HCl, 5 mM EDTA in 320 mM sucrose, pH 7.4) containing 1× protease inhibitor cocktail. The sample was centrifuged at 13500 rpm for 30 minutes at 4° C. The lysate concentration was measured using the BCA protein assay kit (thermoFisher, cat #232250) according to the manufacturer's instructions. The absorbance was read at 560 nm.
Changes in Tau, a major cause of Alzheimer's dementia and Parkinson's disease, together with Aβ plaques, were confirmed by Western blot analysis. Samples of the prepared tissues were separated by SDS-PAGE and transferred to PVDF membrane. The membrane was treated overnight at 4° C. using the primary antibody. As the primary antibody, antibodies capable of detecting Total Tau (T-Tau) and phosphorylated Tau (P-Tau) were used, and detection was performed using a secondary antibody conjugated with horseradical peroxidase (HRP). The blot development was performed with a Clarity Western ECL substrate (Bio-Rad) according to the manufacturer's instructions.
On the other hand, in wild type mice (Wt), a decrease in total Tau (T-Tau) and phosphorylated Tau (P-Tau) was not observed.

5× FAD mice = assay: Amyloid plaque reduction by oral triflupromazine, Thioflavin S staining; format: in vivo; conditions: oral 50 mg/kg once every two days for 3 weeks; vs vehicle control mice
Excerpt: as §5, with “(5×FAD; Alzheimer's” for “(APP/PS1 TG; Alzheimer'”, “B6SJL-Tg (APPSwFILon, PSEN1*M146L*L286V)6799Vas/Mmjax))” for “B6C3-Tg(APPswe, PSEN1dE)85Dbo/Mmjax)”, “wild-type” for “wild type”, “obtained” for “derived”, “5× FAD” for “APP/PS1 TG”, “Four to six mice were” for “Each mouse was”
as §6
Mice were anesthetized using 2%(w/v) avertin (20 mg/g, i.p.). The mice were perfused with 0.9%(w/v) NaCl and brains thereof were excised. […] The lysate concentration was measured using the BCA protein assay kit (thermoFisher, cat #232250) according to the manufacturer's instructions. The absorbance was read at 560 nm.
To stain frozen brain with thioflavin S (ThS), the brain was cut to 35 um thickness to create tissue sections using cryostat (Leica CM1800) and then Aβ plaques were stained. […] Images were obtained using a Leica DM2500 fluorescence microscope.

[5] = 5× FAD (Tg) mice, cortex and hippocampus tissue, oral 50 mg/kg once every two days for 3 weeks, vs Tg veh

T1 sequence (P05067 672-713): as above

Aβ disaggregation effect compared to the control (Aβ1-42 [2]) [%] | degree of Aβ aggregation compared to the control (Aβ1-42 [2]) [%] | Structure (SMILES) | Aβ disaggregation (bands of aggregated Aβ fibrils and dimers) (Aβ42) | amyloid disaggregation effect (Aβ1-42 [1]; 50 μM compound) [%] | degree of Aβ aggregation compared to the control (Aβ1-42 [1]; 50 μM compound) [%] | amyloid disaggregation effect (Aβ1-42 [1]; 500 μM compound) [%] | degree of Aβ aggregation compared to the control (Aβ1-42 [1]; 500 μM compound) [%] | spontaneous alteration (%) (APP/PS1 TG mice) | Aβ aggregation degree compared to the control (Aβ1-42 [3]) [%] | amyloid aggregation inhibition effect compared to the control (Aβ1-42 [3]) [%] | Aggregation (%) (Aβ1-42 [3]) | P-Tau (phosphorylated Tau) [4, 5] | T-Tau (Total Tau) [4, 5] | decrease in phosphorylated Tau (P-Tau) ([4]; wild type mice (Wt)) | decrease in total Tau (T-Tau) ([4]; wild type mice (Wt)) | number of plaques (5× FAD mice) | total areas of plaques (5× FAD mice)
≥ 90 | ≤ 10 | CO[C@H]1/C=C/O[C@@]2(C)Oc3c(C)c(O)c4c(O)c(c(/C=N/N5CCN(C6CCCC6)CC5)c(O)c4c3C2=O)NC(=O)/C(C)=C\C=C\[C@H](C)[C@H](O)[C@@H](C)[C@@H](O)[C@@H](C)[C@H](OC(C)=O)[C@@H]1C [rifapentine, 3-[[(4-cyclopentyl-1-piperazinyl)imino]methyl]-rifamycin] | concentration-dependent Aβ disaggregation activity | ≥ 90 | ≤ 10 | ≥ 99 | ≤ 1 | increased closer to the positive control group (WT-Veh) | ≤ 40 | ≥ 60 | 13.35 |  |  |  |  |  | 
 |  | CN(C)CCCN1c2ccccc2Sc2ccc(C(F)(F)F)cc21 [triflupromazine, dimethyl ({3-[2-(trifluoromethyl)-10H-phenothiazin-10-yl]propyl})amine] | concentration-dependent Aβ disaggregation activity | ≥ 35 | ≤ 65 | ≥ 75 | ≤ 25 |  | ≤ 70 | ≥ 30 | 49.84 | decreased | decreased | not observed | not observed | reduced | reduced

— patent publication US20240139178A1, “METHOD FOR MANUFACTURING COMPOSITION FOR COMPOSITION FOR INCREASING COGNITIVE FUNCTION” (priority 2018, published 2024)
